19 compounds from PubChem BioAssay (NCI) can be followed below.

Common to all, as to experiment: NCI anticancer screen, dose series, 48 h
The test system of experiment [1] is A549 NSCLC.
The subject of experiment [2] is MOLT-4 leukemia.
For experiment [3], the system named is RPMI-8226 leukemia.
Experiment [4] deals with SK-MEL-2 melanoma.
Experiment [5] relates to HL-60(TB) leukemia.
In experiment [6] the test system is UACC-257 melanoma.
Experiment [7] deals with NCI-H226 lung.
The subject of experiment [8] is SF-295 CNS.
In experiment [9] the test system is UACC-62 melanoma.
Experiment [10] deals with NCI-H522 lung.
The test system of experiment [11] is SW-620 colon.
For experiment [12], the system named is LOX IMVI melanoma.
Experiment [13] deals with SR leukemia.
In experiment [14] the test system is OVCAR-4 ovarian.
In experiment [15] the test system is SK-OV-3 ovarian.
The test system of experiment [16] is RXF 393 renal.
In experiment [17] the test system is MDA-MB-231 breast.
Experiment [18] deals with PC-3 prostate.

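Step 1: Grow cells in 96-well plates. Step 2: Expose to compound for 48 hours at 5 concentrations. Step 3: Interpolate endpoints linearly; if unreached, use highest concentration. TGI marks complete inhibition of growth.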

As to `CSc1nc2c(c(O)c(C)c(=O)n2C2OCC(OC(C)=O)C(OC(C)=O)C2OC(C)=O)c(=O)n1C` (stereo unspecified), the TGI in [1], in experiment [2], in experiment [3], in experiment [4], in [5] and in experiment [6] was > 100 µM in each case. The TGI in experiment [7], in [8], in experiment [9], in experiment [10], in experiment [11] and in experiment [12] was > 100 µM in each case. For the same compound, the TGI in experiment [13], in [14] and in experiment [15] was > 100 µM in each case.
Regarding `CCC1(N=[N+]=[N-])C(=O)c2ccccc2N(c2ccccc2)C1=O` (stereo unspecified), the TGI in experiment [1], in [2], in [4], in [5], in experiment [6] and in [8] was > 100 µM throughout. The TGI in [9], in [10], in experiment [11], in experiment [12], in experiment [13] and in experiment [14] was > 100 µM in each case. Moreover, the TGI in [15] was > 100 µM.
As for `Brc1ccc2c(c1)C1C(CO2)C(c2ccccc2)=NN1c1ccccc1` (stereo unspecified), the TGI in [1], in experiment [2], in experiment [3], in [4], in [5] and in experiment [6] was > 100 µM each time. Also, the TGI in experiment [8], in experiment [16], in experiment [11], in experiment [12] and in experiment [15] was > 100 µM each time.
With `Cc1nc2c(n1CCN(C)C)C(=O)c1ccccc1C2=O`, the TGI in experiment [1] is 52.8 µM; in [2], 62.1 µM; in experiment [4] it was 26.2 µM; in [5], 30.7 µM; in experiment [6] it was 27.1 µM; in experiment [7], > 100 µM. In addition, the TGI in [8] was found to be 30.9 µM; in [16] it was 68.2 µM; in [9] it was 25.8 µM; in experiment [10], 18.5 µM; in experiment [11], 29 µM; in experiment [12], 39.1 µM. In addition, the TGI in experiment [13] is 73.2 µM; in experiment [14], 29.3 µM; in experiment [15], > 100 µM.
Regarding `Cn1nc2ccc3nccc(N(CCO)CCO)c3c2n1`, the TGI in experiment [1], in experiment [2], in experiment [3], in experiment [4], in [5] and in experiment [6] was > 100 µM throughout. In addition, the TGI in [7], in experiment [8], in experiment [16], in [9], in experiment [10] and in experiment [11] was > 100 µM in each case. The TGI in [12], in experiment [13] and in experiment [15] was > 100 µM in each case.
Turning to `CCCCCCCCCCCCn1[nH]c(C)c(C(=S)SCCCCCCCC)c1=O`, the TGI is > 100 µM in [1]; > 77.2 µM in experiment [2]; > 35.7 µM in experiment [3]; > 100 µM in experiment [4]; > 75.7 µM in experiment [5]; > 100 µM in experiment [6]. Also, the TGI in [7] was > 94.8 µM; in [8], > 100 µM; in experiment [16], > 80.9 µM; in [9], 64.6 µM; in experiment [10], > 100 µM; in [11] it was > 62 µM. Besides, the TGI in experiment [12] is > 100 µM; in experiment [13], > 39.9 µM; in experiment [14] it was > 100 µM; in [15], > 100 µM.
For the compound `COC(=O)NC(=O)c1cn(CCCOC(=O)CCCCCCCCC(=O)OCCCn2cc(C(=O)NC(=O)OC)c(=O)[nH]c2=O)c(=O)[nH]c1=O`, the TGI in [1], in experiment [2], in experiment [3], in [4], in experiment [5] and in experiment [6] was > 100 µM each time. For the same compound, the TGI in experiment [7] is > 100 µM; in [8], > 100 µM; in experiment [16] it was 75 µM; in experiment [9] it was > 100 µM; in experiment [11], > 100 µM; in [12], > 100 µM. For the same compound, the TGI in experiment [13] and in experiment [14] was > 100 µM each time.
For the compound `CC1C=C[C@H](Sc2ccccc2)CC[C@@]1(C)O` (stereo partly specified), the TGI in experiment [1], in experiment [2], in [3], in [4], in [5] and in [6] was > 100 µM each time. In addition, the TGI in [7], in experiment [16], in experiment [9], in [11], in experiment [12] and in experiment [15] was > 100 µM each time.
For the compound `COC(=O)C1N=CSCC1(C)O` (stereo unspecified), the TGI in [1], in experiment [2], in [3], in experiment [4], in [5] and in experiment [6] was > 100 µM in each case. The TGI in experiment [7], in [8], in experiment [16], in experiment [9], in experiment [11] and in experiment [12] was > 100 µM each time. Also, the TGI in experiment [14] and in [15] was > 100 µM in each case.
Take `CC(C)(Oc1ccc2c(=O)cc(-c3ccccc3)oc2c1)C(=O)Nc1c(Cl)cccc1Cl`: the TGI in experiment [1], in experiment [2], in [3], in [4], in experiment [5] and in experiment [6] was > 100 µM in each case. Also, the TGI in [8] is > 100 µM; in experiment [16], 30.2 µM; in experiment [9], > 100 µM; in experiment [10], > 100 µM; in experiment [11], > 100 µM; in [12], > 100 µM. The TGI in experiment [13] and in experiment [15] was > 100 µM each time.
In the case of `COc1ccc(N2C(=O)[C@@H]3[C@H](C2=O)c2[nH]c4ccccc4c2C2CCC(C(C)(C)C)C[C@@H]23)cc1` (stereo partly specified), the TGI in experiment [1] was > 80.3 µM; in experiment [2], > 100 µM; in [3] it was > 100 µM; in experiment [4] it was > 89.9 µM; in [5] it was > 100 µM; in experiment [6], > 100 µM. Moreover, the TGI in experiment [7] is 46.4 µM; in experiment [8], 29.4 µM; in experiment [16] it was 46 µM; in experiment [9], 49.4 µM; in [10], 62.7 µM; in experiment [11], > 100 µM. Further, the TGI in experiment [12] is > 58.6 µM; in [15], 44.2 µM.
With `CC1(C)CCC[C@]2(C)[C@@H]1CC[C@@]13O[C@@H]1C1=C(CO)C(=O)OC1=C[C@@H]23`, the TGI in experiment [1] is 24.4 µM; in experiment [17], 81.9 µM; in experiment [2], > 100 µM; in experiment [3], 62.8 µM; in experiment [4], 53.8 µM; in experiment [18] it was 57.4 µM. The TGI in experiment [6] came out at 71.2 µM; in [7] it was 30.2 µM; in [8] it was 44.9 µM; in experiment [16] it was 36.4 µM; in experiment [9] it was 40.7 µM; in experiment [10] it was 24.7 µM. For the same compound, the TGI amounted to 37.5 µM in experiment [11], 55.9 µM in experiment [14] and 46.5 µM in experiment [15].
As for `CC(=O)NC(CCCNC(=O)NCCCl)C(=O)NCc1ccccc1` (stereo unspecified), the TGI in experiment [1], in experiment [2], in experiment [3], in experiment [4], in [5] and in [6] was > 100 µM throughout. The TGI in [7], in [8], in [16], in experiment [9], in [10] and in experiment [11] was > 100 µM each time. In addition, the TGI in [13] and in experiment [14] was > 100 µM each time.
On to `CCCCNC(=O)CCN(C(=O)O)S(=O)(=O)c1ccc(NC(=O)c2ccccc2)cc1`, for which the TGI in [1], in experiment [2], in experiment [3], in experiment [4], in experiment [5] and in [6] was > 100 µM throughout. Besides, the TGI is > 100 µM in experiment [7]; > 100 µM in [8]; > 100 µM in experiment [9]; > 100 µM in [10]; 29.2 µM in experiment [11]; 34.6 µM in experiment [12]. The TGI in [13], in experiment [14] and in experiment [15] was > 100 µM each time.
For the compound `C/C(CC(=O)NC1=CC=C(NC(=O)C/C(C)=N\Nc2ccccc2)CC1)=N/Nc1ccccc1`, the TGI in experiment [1], in experiment [2], in experiment [3], in experiment [4], in experiment [5] and in experiment [6] was > 100 µM in each case. The TGI in experiment [7], in experiment [8], in experiment [16], in [9], in [10] and in experiment [12] was > 100 µM in each case. The TGI in experiment [13], in experiment [14] and in experiment [15] was > 100 µM throughout.
Consider `COc1ccc(NC(=O)CC(=O)N/N=C/c2ccc(N(CCC#N)S(=O)(=O)c3ccccc3)cc2)cc1`, for which the TGI in experiment [1], in experiment [2], in [3], in experiment [4], in experiment [5] and in [6] was > 100 µM in each case. In addition, the TGI in experiment [7], in experiment [8], in [9], in [10], in experiment [11] and in [12] was > 100 µM throughout. Besides, the TGI in experiment [13], in experiment [14] and in [15] was > 100 µM each time.
In the case of `O=C(O)Cn1c(=O)[nH]c(=O)c2[nH]cnc21`, the TGI in [1], in experiment [2], in experiment [4], in [5], in experiment [6] and in experiment [16] was > 100 µM each time. Further, the TGI in [9], in experiment [10], in experiment [11], in experiment [12], in experiment [13] and in experiment [14] was > 100 µM in each case. Also, the TGI in experiment [15] is > 100 µM.
In the case of `COc1cc(C)c(C)c(OC(=O)c2c(C)c(C)c(OC)c(C)c2OC)c1C`, the TGI in [1] was 71.8 µM; in experiment [2], 45.2 µM; in experiment [3] it was 81.5 µM; in experiment [4], 24.8 µM; in experiment [5], 32.6 µM; in experiment [6], 78.6 µM. In addition, the TGI is 72.1 µM in experiment [7]; 38.6 µM in [8]; 39.7 µM in experiment [16]; > 100 µM in [9]; 4.71 µM in experiment [10]; 36 µM in [11]. Also, the TGI was 20.9 µM in experiment [12], 22 µM in experiment [13], > 100 µM in [14] and 57.2 µM in [15].
As for `COC(=O)CCc1cccnc1/C=N/O`, the TGI in [1], in [2], in [4], in [5], in [6] and in experiment [7] was > 100 µM in each case. The TGI in experiment [8], in [16], in [9], in experiment [10], in experiment [11] and in experiment [12] was > 100 µM in each case. Further, the TGI in [13], in experiment [14] and in [15] was > 100 µM in each case.
